Laboratory results reported in ChEMBL document CHEMBL3259629, “Discovery and optimization of piperidyl-1,2,3-triazole ureas as potent, selective, and in vivo-active inhibitors of α/β-hydrolase domain containing 6 (ABHD6)” (J Med Chem, 2013).

How the values were obtained:
Conditions in all cases: Neuro2a, 3 nM
[1] = target: T1, Monoacylglycerol lipase ABHD6 (Mus musculus) (UniProt Q8R2Y0)
T1 sequence (whole entry): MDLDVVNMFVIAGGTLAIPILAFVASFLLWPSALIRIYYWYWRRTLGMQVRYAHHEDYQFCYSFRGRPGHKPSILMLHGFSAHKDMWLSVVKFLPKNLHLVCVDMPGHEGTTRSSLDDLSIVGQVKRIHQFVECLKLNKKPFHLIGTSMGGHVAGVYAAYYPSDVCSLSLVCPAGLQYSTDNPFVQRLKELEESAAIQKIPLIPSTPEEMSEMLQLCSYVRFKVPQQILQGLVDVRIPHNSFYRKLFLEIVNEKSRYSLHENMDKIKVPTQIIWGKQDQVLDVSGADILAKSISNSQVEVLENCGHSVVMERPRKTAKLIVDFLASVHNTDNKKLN

[2] = target: T2, Protein ABHD13 (Mus musculus) (UniProt Q80UX8)
T2 sequence (whole entry): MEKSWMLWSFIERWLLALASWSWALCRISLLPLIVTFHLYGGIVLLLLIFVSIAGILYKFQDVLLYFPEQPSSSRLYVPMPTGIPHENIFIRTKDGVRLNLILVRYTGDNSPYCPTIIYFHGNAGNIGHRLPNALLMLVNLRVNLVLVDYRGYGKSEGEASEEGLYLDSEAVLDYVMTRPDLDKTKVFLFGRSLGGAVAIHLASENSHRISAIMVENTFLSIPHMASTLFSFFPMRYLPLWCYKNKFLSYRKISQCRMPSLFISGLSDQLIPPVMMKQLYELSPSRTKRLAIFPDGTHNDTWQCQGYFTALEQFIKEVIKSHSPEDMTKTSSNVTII
Description: Inhibition of Abhd13 in mouse Neuro2a cells at 3 nM after 4 hrs by ABPP-SILAC assay

[3] = target: T3, Lysophospholipase-like protein 1 (Mus musculus) (UniProt Q3UFF7)
T3 sequence (whole entry): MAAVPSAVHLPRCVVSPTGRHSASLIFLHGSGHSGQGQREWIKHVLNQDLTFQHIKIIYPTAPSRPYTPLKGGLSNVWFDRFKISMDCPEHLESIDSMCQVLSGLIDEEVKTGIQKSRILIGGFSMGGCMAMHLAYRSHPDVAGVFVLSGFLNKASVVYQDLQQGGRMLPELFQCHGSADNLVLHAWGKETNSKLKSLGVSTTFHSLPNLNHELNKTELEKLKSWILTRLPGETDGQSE
Description: Inhibition of Lyplal1 in mouse Neuro2a cells at 3 nM after 4 hrs by ABPP-SILAC assay

[4] = target: T4, Calcium-independent phospholipase A2-gamma (Mus musculus) (UniProt Q8K1N1)
T4 sequence (whole entry): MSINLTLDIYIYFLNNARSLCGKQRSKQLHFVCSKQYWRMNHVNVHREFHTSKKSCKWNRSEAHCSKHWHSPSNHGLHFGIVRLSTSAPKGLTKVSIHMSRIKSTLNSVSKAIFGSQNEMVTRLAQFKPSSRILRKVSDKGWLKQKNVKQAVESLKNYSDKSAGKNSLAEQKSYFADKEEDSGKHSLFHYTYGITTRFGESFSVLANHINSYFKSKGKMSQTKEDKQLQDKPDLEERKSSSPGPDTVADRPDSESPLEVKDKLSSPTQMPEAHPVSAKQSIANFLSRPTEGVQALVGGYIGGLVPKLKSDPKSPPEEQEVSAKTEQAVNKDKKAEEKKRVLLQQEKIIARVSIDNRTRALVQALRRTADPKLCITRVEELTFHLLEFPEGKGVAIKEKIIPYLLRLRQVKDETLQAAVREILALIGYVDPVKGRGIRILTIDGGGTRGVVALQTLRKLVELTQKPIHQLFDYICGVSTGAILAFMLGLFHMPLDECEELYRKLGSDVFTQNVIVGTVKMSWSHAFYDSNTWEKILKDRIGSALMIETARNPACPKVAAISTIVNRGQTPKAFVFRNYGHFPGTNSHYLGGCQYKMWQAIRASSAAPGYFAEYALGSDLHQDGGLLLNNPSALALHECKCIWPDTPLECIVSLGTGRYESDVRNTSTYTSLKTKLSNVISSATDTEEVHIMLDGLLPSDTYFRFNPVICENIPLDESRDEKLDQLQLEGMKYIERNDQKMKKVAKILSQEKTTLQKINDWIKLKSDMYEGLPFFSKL
Description: Inhibition of Pnpla8 in mouse Neuro2a cells at 3 nM after 4 hrs by ABPP-SILAC assay

[5] = target: Prolyl endopeptidase (Mus musculus) (UniProt Q9QUR6)
Description: Inhibition of Perp in mouse Neuro2a cells at 3 nM after 4 hrs by ABPP-SILAC assay

[6] = target: Platelet-activating factor acetylhydrolase 2, cytoplasmic (Mus musculus) (UniProt Q8VDG7)
Description: Inhibition of Pafah2 in mouse Neuro2a cells at 3 nM after 4 hrs by ABPP-SILAC assay

[7] = target: T5, GPI inositol-deacylase (Mus musculus) (UniProt Q3UUQ7)
T5 sequence (whole entry): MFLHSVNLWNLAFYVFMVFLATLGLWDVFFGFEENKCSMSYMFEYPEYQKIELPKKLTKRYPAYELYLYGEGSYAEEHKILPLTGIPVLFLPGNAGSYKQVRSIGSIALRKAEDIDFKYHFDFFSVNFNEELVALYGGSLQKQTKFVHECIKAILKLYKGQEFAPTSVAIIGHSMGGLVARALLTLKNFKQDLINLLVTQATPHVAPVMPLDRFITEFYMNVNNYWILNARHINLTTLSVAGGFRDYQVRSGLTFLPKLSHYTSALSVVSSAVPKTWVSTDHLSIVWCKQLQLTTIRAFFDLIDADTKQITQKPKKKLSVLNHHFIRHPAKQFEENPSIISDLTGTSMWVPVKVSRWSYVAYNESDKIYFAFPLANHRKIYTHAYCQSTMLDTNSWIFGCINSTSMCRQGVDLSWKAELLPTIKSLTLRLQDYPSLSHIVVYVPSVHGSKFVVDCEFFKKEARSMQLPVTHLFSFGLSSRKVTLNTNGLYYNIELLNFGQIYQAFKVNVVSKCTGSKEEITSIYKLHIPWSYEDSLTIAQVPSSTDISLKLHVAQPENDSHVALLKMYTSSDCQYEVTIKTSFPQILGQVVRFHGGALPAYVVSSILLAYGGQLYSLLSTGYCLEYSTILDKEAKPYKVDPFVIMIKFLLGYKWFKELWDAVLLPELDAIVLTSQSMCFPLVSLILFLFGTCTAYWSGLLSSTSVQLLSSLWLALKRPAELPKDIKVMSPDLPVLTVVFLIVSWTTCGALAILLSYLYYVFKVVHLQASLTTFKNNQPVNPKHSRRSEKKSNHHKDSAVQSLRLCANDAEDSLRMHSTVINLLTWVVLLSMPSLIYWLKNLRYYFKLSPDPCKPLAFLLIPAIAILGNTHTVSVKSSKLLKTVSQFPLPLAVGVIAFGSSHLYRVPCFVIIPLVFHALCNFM
Description: Inhibition of Pgap1 in mouse Neuro2a cells at 3 nM after 4 hrs by ABPP-SILAC assay

Sequence of Platelet-activating factor acetylhydrolase 2, cytoplasmic (Mus musculus) (Q8VDG7 whole entry): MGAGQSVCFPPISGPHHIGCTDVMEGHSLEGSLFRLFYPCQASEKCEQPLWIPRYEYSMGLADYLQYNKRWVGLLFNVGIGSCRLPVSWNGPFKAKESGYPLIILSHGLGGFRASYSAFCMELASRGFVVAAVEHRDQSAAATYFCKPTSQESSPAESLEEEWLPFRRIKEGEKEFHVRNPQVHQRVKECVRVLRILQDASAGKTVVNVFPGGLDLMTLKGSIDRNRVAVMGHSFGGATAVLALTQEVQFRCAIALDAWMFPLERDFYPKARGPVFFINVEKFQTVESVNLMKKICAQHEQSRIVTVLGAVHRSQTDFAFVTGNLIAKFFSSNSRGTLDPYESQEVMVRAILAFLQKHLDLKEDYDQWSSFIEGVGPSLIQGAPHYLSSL
Sequence of Prolyl endopeptidase (Mus musculus) (Q9QUR6 whole entry, looked up): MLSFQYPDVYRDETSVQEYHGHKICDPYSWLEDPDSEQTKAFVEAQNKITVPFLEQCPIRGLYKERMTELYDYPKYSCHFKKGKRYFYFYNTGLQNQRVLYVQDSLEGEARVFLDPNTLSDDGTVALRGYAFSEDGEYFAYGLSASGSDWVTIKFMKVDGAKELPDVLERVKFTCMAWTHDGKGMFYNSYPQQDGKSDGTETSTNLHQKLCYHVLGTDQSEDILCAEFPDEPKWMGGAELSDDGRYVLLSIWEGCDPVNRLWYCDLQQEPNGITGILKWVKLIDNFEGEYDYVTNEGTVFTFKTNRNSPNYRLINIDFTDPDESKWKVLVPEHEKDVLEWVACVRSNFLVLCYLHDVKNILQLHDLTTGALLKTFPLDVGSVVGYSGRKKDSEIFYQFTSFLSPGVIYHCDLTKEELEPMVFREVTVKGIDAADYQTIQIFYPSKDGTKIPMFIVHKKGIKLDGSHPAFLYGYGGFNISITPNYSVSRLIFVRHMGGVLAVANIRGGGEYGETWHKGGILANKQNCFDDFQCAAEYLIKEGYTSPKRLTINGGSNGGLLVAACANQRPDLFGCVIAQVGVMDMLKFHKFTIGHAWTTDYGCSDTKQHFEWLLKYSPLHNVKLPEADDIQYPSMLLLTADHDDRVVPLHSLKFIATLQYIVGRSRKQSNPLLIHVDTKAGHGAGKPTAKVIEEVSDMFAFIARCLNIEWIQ

SMILES	inhibition [1]	inhibition [2]	inhibition [3]	inhibition [4]	inhibition [5]	inhibition [6]	inhibition [7]
O=C(N1CCCCC1c1ccccc1)n1cc(-c2ccc(-c3cccc(CO)c3)cc2)nn1 (racemic)	> 90%	< 50%	< 50%	< 50%	< 50%	< 50%	< 50%
O=C(O)c1cccc(-c2ccc(-c3cn(C(=O)N4CCCCC4Cc4ccccc4)nn3)cc2)c1 (racemic)	> 90%	< 50%	< 50%	< 50%	< 50%	< 50%	< 50%
O=C(c1cccc(-c2ccc(-c3cn(C(=O)N4CCCCC4c4ccccc4)nn3)cc2)c1)N1CCCCC1 (racemic)	> 80%	< 50%	< 50%	< 50%	< 50%	< 50%	< 50%
